Measured values: patent US10131652B2, “Pyrimidinyloxy benzene derivatives as herbicides” (E. I. DU PONT DE NEMOURS AND COMPANY, priority 2014, dated 2018)
Where two headings read alike, the source gives them in different places.

Key:
Assay in all cases: Test B pre-/postemergence plant response
Type in all cases: in vivo
[1] = test system: pigweed (Amaranthus retroflexus); conditions: 1000 g ai/ha, 0 to 100 scale (0 no effect, 100 complete control); for pest or weed control at 1000 g/ha: Amaranthus retroflexus, 240 h, read-out: Plant response rating, Pigweed
Description: (§1) Seeds of plant species selected from bamyardgrass (Echinochloa crus-galli), kochia (Kochia scoparia), ragweed (common ragweed, Ambrosia elatior), Italian ryegrass (Lolium multiflorum), large (Lg) crabgrass (Digitaria sanguinalis), giant foxtail (Setaria faberii), momingglory (Ipomoea spp.), pigweed (Amaranthus retroflexus), velvetleaf (Abutilon theophrasti), wheat (Triticum aestivum), and corn (Zea mays) were planted into a blend of loam soil and sand and treated preemergence with a directed soil spray using test chemicals formulated in a non-phytotoxic solvent mixture which included a surfactant. At the same time, plants selected from these crop and weed species and also blackgrass (Alopecurus myosuroides), and galium (catchweed bedstraw, Galium aparine) were planted in pots containing the same blend of loam soil and sand and treated with postemergence applications of test chemicals formulated in the same manner. Plants ranged in height from 2 to 10 cm and were in the one- to two-leaf stage for the postemergence treatment. Treated plants and untreated controls were maintained in a greenhouse for approximately 10 days, after which time all treated plants were compared to untreated controls and visually evaluated for injury. Plant response ratings, summarized in Table B, are based on a 0 to 100 scale where 0 is no effect and 100 is complete control. A dash (-) response means no test result.

[2] = test system: barnyardgrass (Echinochloa crus-galli); conditions: 1000 g ai/ha, 0 to 100 scale (0 no effect, 100 complete control); for pest or weed control at 1000 g/ha: Echinochloa crus-galli, 240 h, read-out: Plant response rating, Barnyardgrass
Description: as §1

[3] = test system: giant foxtail (Setaria faberii); conditions: 1000 g ai/ha, 0 to 100 scale (0 no effect, 100 complete control); for pest or weed control at 1000 g/ha: Setaria faberi, 240 h, read-out: Plant response rating, Foxtail, Giant
Description: as §1

[4] = test system: morningglory (Ipomoea spp.); conditions: 1000 g ai/ha, 0 to 100 scale (0 no effect, 100 complete control); for pest or weed control at 1000 g/ha: Ipomoea, 240 h, read-out: Plant response rating, Morningglory
Description: as §1

[5] = test system: velvetleaf (Abutilon theophrasti); conditions: 1000 g ai/ha, 0 to 100 scale (0 no effect, 100 complete control); for pest or weed control at 1000 g/ha: Abutilon theophrasti, 240 h, read-out: Plant response rating, Velvetleaf
Description: as §1

[6] = test system: large (Lg) crabgrass (Digitaria sanguinalis); conditions: 1000 g ai/ha, 0 to 100 scale (0 no effect, 100 complete control); for pest or weed control at 1000 g/ha: Digitaria sanguinalis, 240 h, read-out: Plant response rating, Crabgrass, Large
Description: as §1

[7] = test system: corn (Zea mays); conditions: 1000 g ai/ha, 0 to 100 scale (0 no effect, 100 complete control); for Corn plant response rating (crop injury, 0 = no effect, 100 = complete kill) at 1000 g/ha: Zea mays, 240 h
Description: as §1

[8] = test system: wheat (Triticum aestivum); conditions: 1000 g ai/ha, 0 to 100 scale (0 no effect, 100 complete control); for plant injury at 1000 g/ha: Triticum aestivum, 240 h, read-out: Plant response rating, Wheat
Description: as §1

Compound	Plant response rating, Pigweed ([1]; Postemergence)	Plant response rating, Pigweed ([1]; Preemergence)	Plant response rating, Barnyardgrass ([2]; Postemergence)	Plant response rating, Barnyardgrass ([2]; Preemergence)	Plant response rating, Foxtail, Giant ([3]; Postemergence)	Plant response rating, Foxtail, Giant ([3]; Preemergence)	Plant response rating, Morningglory ([4]; Postemergence)	Plant response rating, Morningglory ([4]; Preemergence)	Plant response rating, Velvetleaf ([5]; Postemergence)	Plant response rating, Velvetleaf ([5]; Preemergence)	Plant response rating, Crabgrass, Large ([6]; Postemergence)	Plant response rating, Crabgrass, Large ([6]; Preemergence)	Plant response rating, Corn ([7]; Postemergence)	Plant response rating, Corn ([7]; Preemergence)	Plant response rating, Wheat ([8]; Postemergence)	Plant response rating, Wheat ([8]; Preemergence)	also measured
OCc1cc(-c2ccccc2Oc2ncc(Cl)cn2)no1 [Compound 31, 3-[2-[(5-chloro-2-pyrimidinyl)oxy]phenyl]-5-isoxazolemethanol]	–	–	–	–	–	–	–	–	–	–	–	–	–	–	–	–	pest or weed control at 1000 g/ha ([1]; post-emergence, Postemergence): 30%; pest or weed control at 1000 g/ha ([1]; pre-emergence, Preemergence): 0%; pest or weed control at 1000 g/ha ([2]; post-emergence, Postemergence): 10%; pest or weed control at 1000 g/ha ([2]; pre-emergence, Preemergence): 0%; pest or weed control at 1000 g/ha ([3]; post-emergence, Postemergence): 30%; pest or weed control at 1000 g/ha ([3]; pre-emergence, Preemergence): 30%; pest or weed control at 1000 g/ha ([4]; post-emergence, Postemergence): 30%; pest or weed control at 1000 g/ha ([4]; pre-emergence, Preemergence): 0%; pest or weed control at 1000 g/ha ([5]; post-emergence, Postemergence): 30%; pest or weed control at 1000 g/ha ([5]; pre-emergence, Preemergence): 0%; pest or weed control at 1000 g/ha ([6]; post-emergence, Postemergence): 50%; pest or weed control at 1000 g/ha ([6]; pre-emergence, Preemergence): 80%; Corn plant response rating (crop injury, 0 = no effect, 100 = complete kill) at 1000 g/ha ([7]; post-emergence, Postemergence): 0%; Corn plant response rating (crop injury, 0 = no effect, 100 = complete kill) at 1000 g/ha ([7]; pre-emergence, Preemergence): 0%; plant injury at 1000 g/ha ([8]; post-emergence, Postemergence): 0%; plant injury at 1000 g/ha ([8]; pre-emergence, Preemergence): 0%
Clc1cnc(Oc2ccccc2-c2ncco2)nc1 [Compound 61]	60	90	10	20	0	40	10	0	70	50	0	50	0	0	0	0	–
N#CCc1cc(-c2ccccc2Oc2ncc(Cl)cn2)no1 [Compound 36]	90	100	90	30	90	90	20	10	100	–	80	100	50	0	50	0	–
CN(C)c1ccc(-c2ccccc2Oc2ncc(Cl)cn2)cn1 [Compound 2]	70	100	0	0	0	10	40	0	50	20	0	10	0	0	0	0	–
Clc1cnc(Oc2ccccc2-c2cnco2)nc1 [Compound 7]	20	40	10	10	20	20	40	0	10	10	20	40	10	0	10	0	–
Clc1cnc(Oc2ccccc2-c2cscn2)nc1 [Compound 8]	70	100	0	30	0	60	10	0	30	30	10	80	0	0	0	0	–
